# Source: paper PMC4319890, “UFSRAT: Ultra-Fast Shape Recognition with Atom Types –The Discovery of Novel Bioactive Small Molecular Scaffolds for FKBP12 and 11βHSD1” (PLoS ONE, 2015)
# Biological target: T1, Recombinant human FKBP12 (Homo sapiens, UniProt P62942)
# T1 construct: made in house
# Assay: Thermal denaturation fluorescence (TDF) binding assay
# Conditions: at the mid-point melting temperature Tm; 10 μM FKBP12, 250 μM compound, pH 7.0; read-out: TDF Kd^app at Tm
# Experimental: Thermal denaturation fluorescence (TDF). A fluorescence based thermal denaturation assay was used to detect binding to FKBP12 essentially as described in the study of Lo [38]. Final conditions were: 50 mM ammonium acetate, pH 7.0; 10 μM FKBP12; 250 μM screening compound and 5x SYPRO orange dye (Invitrogen). […] Protein was melted over the temperature range 20 to 80°C; 0.5°C increment, 30s hold. Compounds were screened for fluorescence in the absence of protein; all samples were solvent matched and repeated in triplicate on 3 separate experiments. Apparent equilibrium dissociation constants (Kd ^app) for the interaction between the protein and ligands were calculated from the change in mid-point melting temperature of the protein (Tm) on addition of ligand and transformed to 25°C using a benchmark value for the enthalpy of ligand binding of -5 kcal∙mol^-1 [39].
# T1 sequence (P62942 whole entry): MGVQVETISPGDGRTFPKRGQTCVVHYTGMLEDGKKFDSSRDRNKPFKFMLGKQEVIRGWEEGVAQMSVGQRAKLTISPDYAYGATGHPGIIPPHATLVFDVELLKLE
row,Kd,Compound
1,548 ± 38 µM,"O=C(CNC(=O)c1ccccc1C(=O)O)c1ccccc1 [Compound 1, 2-(phenacylcarbamoyl)benzoic acid]"
2,648 ± 88 µM,"CC(=O)Nc1ccccc1NC(=O)CCc1ccccc1 [Compound 4, N-(2-acetamidophenyl)-3-phenyl-propanamide]"

# Continued, compound first:
row,Compound,Kd
1,"CC(NC(=O)c1ccccc1)C(O)c1ccccc1 (centres unmarked) [Compound 2, N-(2-hydroxy-1-methyl-2-phenyl-ethyl)benzamide]",575 ± 70 µM
2,"Cc1ccc(SCC(=O)N2CCOCC2)cc1 [Compound Q2, 1-morpholino-2-(p-tolylsulfanyl)ethanone, reference compound]",28 ± 8 µM
3,"O=C(NCC(O)c1ccccc1)c1cccc(Cl)c1 (centres unmarked) [Compound 3, 3-chloro-N-(2-hydroxy-2-phenyl-ethyl)benzamide]",568 ± 84 µM

# Same assay, conditions: value in brackets, transformed to 25°C using a benchmark enthalpy of ligand binding of -5 kcal/mol; read-out: TDF Kd^app (transformed 25°C) (converted)
row,Kd,Compound
1,252 µM,"O=C(CNC(=O)c1ccccc1C(=O)O)c1ccccc1 [Compound 1, 2-(phenacylcarbamoyl)benzoic acid]"
2,303 µM,"CC(=O)Nc1ccccc1NC(=O)CCc1ccccc1 [Compound 4, N-(2-acetamidophenyl)-3-phenyl-propanamide]"

# The remaining lines, values behind:
row,Compound,Kd
1,"CC(NC(=O)c1ccccc1)C(O)c1ccccc1 (centres unmarked) [Compound 2, N-(2-hydroxy-1-methyl-2-phenyl-ethyl)benzamide]",266 µM
2,"Cc1ccc(SCC(=O)N2CCOCC2)cc1 [Compound Q2, 1-morpholino-2-(p-tolylsulfanyl)ethanone, reference compound]",6 µM
3,"O=C(NCC(O)c1ccccc1)c1cccc(Cl)c1 (centres unmarked) [Compound 3, 3-chloro-N-(2-hydroxy-2-phenyl-ethyl)benzamide]",263 µM

# Biological target: T1, Recombinant human FKBP12
# Assay: Electrospray ionization mass spectrometry (ESI-MS) binding assay
# Conditions: 50°C; 100 μM ligand, 5 μM FKBP12, 10% methanol, pH 6.8; read-out: ESI-MS Kd^app
# Experimental: Electrospray ionization mass spectrometry. Electrospray-ionization mass spectrometry (ESI-MS) was used to detect binding to FKBP12. Data was collected on a LCQ^TMDECA ion-trap instrument (ThermoQuest) run in the positive ion mode. The analyte was introduced by direct infusion and the following operating parameters were employed: nitrogen flow 100units, analyte flow 6 μl∙min^-1, capillary voltage 3.5 kV, cone voltage 25 V and capillary temperature 50°C. Spectrum were averaged over 300 scans (2s/ scan) and processed using the Bioworks Browser V 3.0 software package and ProMass 2.5 (ThermoScientific). The analyte solution consisted of 100 μM ligand, 5 μM FKBP12 in 10% methanol (v/v), 10 mM ammonium acetate, pH 6.8 incubated for 10 minutes at room temperature. Kd ^app for the interaction between the protein and ligand were calculated from the ratio of the intensity of the ion signal from free protein and protein in complex with ligand using the method of Tjernberg.
row,Kd,Compound
1,313 ± 30 µM,"O=C(CNC(=O)c1ccccc1C(=O)O)c1ccccc1 [Compound 1, 2-(phenacylcarbamoyl)benzoic acid]"
2,281 ± 42 µM,"CC(=O)Nc1ccccc1NC(=O)CCc1ccccc1 [Compound 4, N-(2-acetamidophenyl)-3-phenyl-propanamide]"

# Further lines, the compound ahead of its results:
row,Compound,Kd
1,"CC(NC(=O)c1ccccc1)C(O)c1ccccc1 (centres unmarked) [Compound 2, N-(2-hydroxy-1-methyl-2-phenyl-ethyl)benzamide]",399 ± 45 µM
2,"Cc1ccc(SCC(=O)N2CCOCC2)cc1 [Compound Q2, 1-morpholino-2-(p-tolylsulfanyl)ethanone, reference compound]",197 ± 74 µM
3,"O=C(NCC(O)c1ccccc1)c1cccc(Cl)c1 (centres unmarked) [Compound 3, 3-chloro-N-(2-hydroxy-2-phenyl-ethyl)benzamide]",383 ± 52 µM

# Biological target: T2, HEK-293 cells transfected with human 11β-HSD1 (Homo sapiens, UniProt P28845)
# T2 construct: HEK-293 cells stably transfected with the full length human hsd11b1 gene; expressed in transfected cells; host or cells: HEK-293
# Assay: Scintillation proximity assay (SPA), inhibition of 11β-HSD1 reductase activity in cells
# Assay type: cell-based
# Conditions: conversion of cortisone to cortisol; 40 nM [3H]-cortisone, 1% DMSO
# Experimental: Testing for inhibition of 11β-HSD1 reductase activity in cells. Candidate compounds were tested for inhibition of the conversion of cortisone to cortisol by 11β-HSD1 expressed in HEK-293 cells stably transfected with the full length human hsd11b1 gene as previously described. An established scintillation proximity assay (SPA) was carried out in a 96-well plate format, with appropriate controls. Experiments were set up in triplicate with 8 inhibitor concentration points per compound, spanning 3.5 orders of magnitude. Final solution conditions: 40 nM [^3H]-cortisone; 50 mM Tris pH 8.0, 50 mM NaCl; 1% DMSO. The anti-cortisol antibody was purchased from HyTest, Finland; radiometric quantification was carried out on a Perkin Elmer TopCount instrument. The percentage inhibition was determined relative to a non-inhibited control and the IC50 determined from a plot of percentage inhibition against compound concentration. Data were fitted global nonlinear regression using Kaleidagraph V4.0 (Synergy Software).
# T2 sequence (P28845 whole entry): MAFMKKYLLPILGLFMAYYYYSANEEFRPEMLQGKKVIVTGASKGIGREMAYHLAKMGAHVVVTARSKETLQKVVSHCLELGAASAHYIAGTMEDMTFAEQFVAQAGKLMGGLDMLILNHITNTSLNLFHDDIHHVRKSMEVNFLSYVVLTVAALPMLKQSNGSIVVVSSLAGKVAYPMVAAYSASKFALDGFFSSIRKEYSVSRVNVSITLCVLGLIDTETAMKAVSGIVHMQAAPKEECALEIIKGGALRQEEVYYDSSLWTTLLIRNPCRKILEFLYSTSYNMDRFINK
row,IC50,Compound
1,11.3 ± 2.6 µM,"COc1ccc(/C=C/C(=O)/C=C/c2ccc(OC)c(OC)c2)cc1OC [Compound 5, (1E,4E)-1,5-bis(3,4-dimethoxyphenyl)penta-1,4-dien-3-one]"
2,0.067 ± 0.003 µM,"COc1ccc(C(=O)CSc2ccccn2)cc1 [Compound 8, 1-(4-methoxyphenyl)-2-(2-pyridylsulfanyl)ethanone]"
3,7.9 ± 3 µM,"COc1ccc2[nH]c(SCC(=O)c3ccc(O)c(O)c3)nc2c1 [Compound 7, 1-(3,4-dihydroxyphenyl)-2-[(6-methoxy-1H-benzimidazol-2-yl)sulfanyl]ethanone]"

# Same assay, conditions: discussion
row,affinity IC50 in a cell based assay (in words),Compound
1,low nanomolar,"COc1ccc(C(=O)CSc2ccccn2)cc1 [Compound 8, 1-(4-methoxyphenyl)-2-(2-pyridylsulfanyl)ethanone]"

# Biological target: T3, recombinant h11β-HSD1 (Homo sapiens, UniProt P28845)
# T3 construct: made in house
# Assay: Fluorescence assay, inhibition of 11β-HSD1 dehydrogenase activity
# Assay type: biochemical
# Conditions: conversion of cortisol to cortisone; 1 μM 11β-HSD1, 200 μM cortisol, 500 μM NADP, pH 7.7, 25°C; read-out: Fluoresc. Ki^app
# Experimental: Testing for inhibition of 11β-HSD1 dehydrogenase activity. Candidate compounds were tested for inhibition of the conversion of cortisol to cortisone by recombinant h11β-HSD1. The dehydrogenation of cortisol is accompanied by the reduction of NADP^+ to NADPH; this was followed spectrophotometrically and scaled to a NADPH calibration curve. The excitation and emission wavelengths were 340 and 458 nm. (SpectraMax M5, Molecular Devices). The experimental conditions were 500 μM NADP, 1 μM 11β-HSD1, 200 μM cortisol 50 mM Tris, pH 7.7, 50 mM NaCl; 25°C. Reactions were carried out in sextuplicate. Ki ^app were derived from a fit of the rate of the reaction as a function of inhibitor concentration; Kaleidagraph, V4.0 [43]
# T3 sequence (P28845 whole entry): as above
row,Ki,Compound
1,142 ± 66 µM,"COc1ccc(/C=C/C(=O)/C=C/c2ccc(OC)c(OC)c2)cc1OC [Compound 5, (1E,4E)-1,5-bis(3,4-dimethoxyphenyl)penta-1,4-dien-3-one]"
2,248 ± 73 µM,"COc1ccc2[nH]c(SCC(=O)c3ccc(O)c(O)c3)nc2c1 [Compound 7, 1-(3,4-dihydroxyphenyl)-2-[(6-methoxy-1H-benzimidazol-2-yl)sulfanyl]ethanone]"

# The remaining lines, values behind:
row,Compound,Ki
1,"COc1ccc(C(=O)CSc2ccccn2)cc1 [Compound 8, 1-(4-methoxyphenyl)-2-(2-pyridylsulfanyl)ethanone]",26 ± 7 µM
2,Dihydroxyphenyl)-2-oxoethyl]sulfanyl}-1H-tetrazol-1-yl)benzamide [Compound 6],47 ± 13 µM

# Biological target: FKBP12
# Assay: not given
# Set-up: method as in PMID 18038971
# Conditions: 27°C printed for Q2; cited from earlier work
row,Compound,Kd
1,"Cc1ccc(S(=O)(=O)CC(=O)N2CCOCC2)cc1 [Compound Q3, 2-[(4-methylbenzene)-sulfonyl]-1-(morpholin-4-yl)ethan-1-one]",95 µM
2,"Cc1ccc(SCC(=O)N2CCOCC2)cc1 [Compound Q2, 1-morpholino-2-(p-tolylsulfanyl)ethanone, reference compound]",15 µM

# Tested on: 11β-HSD1
# Assay: not given
# Set-up: method as in PMID 16087724
# Conditions: Figure 5 legend; cited from earlier work
row,Compound,"inhibitor of 11β-HSD1 (potency, type not given)"
1,CC1(C)[C@@H](OC(=O)CCC(=O)O)CC[C@]2(C)[C@H]3C(=O)C=C4[C@@H]5C[C@@](C)(C(=O)O)CC[C@]5(C)CC[C@@]4(C)[C@]3(C)CC[C@@H]12 [Carbenoxolone],0.02 µM
